In US11161830B2, “4-pyridone compound or salt thereof, and pharmaceutical composition and formulation including same” (priority 2017, dated 2021):
pIC50: −log10 of the molar value. Values joined by “and” are separate entries in the source; they are usually repeats but may differ in a detail not shown here. Equal values may be shown once. Read-outs that look alike come from different tables or passages of the source.

Tests used:
HBV genotype C = experiment: Test Example 3-1: in vivo efficacy study in PXB mouse (chimeric mouse with human hepatocytes); design: species or system hepatitis B virus; conditions: orally 100 mg/kg twice a day for 14 days
Protocol: An in vivo efficacy study with a. PXB mouse (a chimeric mouse with human hepatocytes) was carried out in PhenixBio Co., Ltd. 27-Week-or-more-old male mice having body weights of 15 g or more after the elapse of 12 weeks from the infection with HBV genotype C were allocated into three groups (2 mice per group) and used.
The compounds of Examples 6-5 and 10-2 were each orally administered at 100 mg/kg twice a day for 14 days. The other group was taken as a control group for which administration was not carried out. A first administration day was taken as day 0, and before administration on day 0, day 3, Day 7, and day 10, and on day 14, the blood was collected from the orbital venous plexus under anesthesia with isoflurane. The serum was separated from the collected blood and purified with a QIAamp (registered trademark) DNA Blood Mini Kit (manufactured by QIAGEN). The amount of HBV-DNA in the obtained solution was absolutely quantified by a real-time PCR method. In addition, the amount of HBsAg and the amount of HBcrAg in the serum were each absolutely quantified by chemiluminescent enzyme immunoassay using Lumipulse (registered trademark) HBsAg-HQ (manufactured by Fujirebio Inc.) and Lumipulse (registered trademark) HBcrAg (manufactured by Fujirebio Inc.).

HBV (genotype AeUS) = experiment: Test Example 2-1: anti-HBV assay in PXB-cells (fresh human hepatocytes); assay type: cell-based, hepatitis B virus; conditions: Hepatitis B virus, Hepatocyte, PXB-cells infected with HBV genotype AeUS, culture supernatant on day 32 post infection
Procedure, shortened: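 PXB-cells (primary human hepatocytes from chimeric mice) infected with mouse-serum-derived HBV genotype AeUS at ~10 copies/cell with 4% PEG-8000. Compound dosed days 17–32 post-infection, refreshed every 5 days, 37 °C. Day-32 supernatant HBV-DNA by real-time PCR and HBsAg by chemiluminescent immunoassay, as % of untreated control; IC50 by log-linear regression.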

[1] = Day 0 (before administration), individual mice

Row | SMILES | HBV-DNA in serum (HBV genotype C; [1]) | HBcrAg in serum (HBV genotype C; [1]) | HBsAg in serum (HBV genotype C; [1]) | HBV-DNA in serum (HBV genotype C; Day 3, individual mice) | HBcrAg in serum (HBV genotype C; Day 3, individual mice) | HBsAg in serum (HBV genotype C; Day 3, individual mice) | HBV-DNA in serum (HBV genotype C; Day 7, individual mice) | HBcrAg in serum (HBV genotype C; Day 7, individual mice) | HBsAg in serum (HBV genotype C; Day 7, individual mice) | HBV-DNA in serum (HBV genotype C; Day 10, individual mice) | HBsAg in serum (HBV genotype C; Day 10, individual mice) | HBV-DNA in serum (HBV genotype C; Day 14, individual mice) | HBcrAg in serum (HBV genotype C; Day 14, individual mice) | HBsAg in serum (HBV genotype C; Day 14, individual mice) | pIC50 (HBV (genotype AeUS); read-out: IC50 HBV-DNA) | pIC50 (HBV (genotype AeUS); read-out: IC50 HBsAg)
1 | COCCN1CCN(c2nc3ccc(-n4cc(C(=O)O)c(=O)cc4-c4ccc(N5CCCC5)c(Cl)c4)cc3s2)CC1 [Example 6-5, 6-(3-chloro-4-(pyrrolidin-1-yl)phenyl)-1-(2-(4-(2-methoxyethyl)piperazine-1-yl)benzo[d]thiazol-6-yl)-4-oxo-1,4-dihydropyridine-3-carboxylic acid] | 2.3E+09 copies/mL and 2.1E+09 copies/mL | 4.5E+08 U/mL and 2.9E+08 U/mL | 3,578 IU/mL and 2,370 IU/mL | 8.7E+08 copies/mL and 7.1E+08 copies/mL | 1.5E+08 U/mL and 9.7E+07 U/mL | 781 IU/mL and 357 IU/mL | 2.7E+08 copies/mL and 2.9E+08 copies/mL | 8.7E+07 U/mL and 7.7E+07 U/mL | 570 IU/mL and 345 IU/mL | 3.4E+08 copies/mL and 6.3E+08 copies/mL | 588 IU/mL and 355 IU/mL | 3.3E+08 copies/mL and 8.4E+08 copies/mL | 7.5E+07 U/mL and 9.1E+07 U/mL | 540 IU/mL and 349 IU/mL | > 8.10 | 7.80
2 | COC[C@H]1CCCN1c1nc2ccc(-n3cc(C(=O)O)c(=O)cc3-c3ccc(N4CC[C@@H](OC)C4)cc3)cc2s1 [Example 10-2, 1-(2-((R)-2-(methoxymethyl)pyrrolidin-1-yl)benzo[d]thiazol-6-yl)-6-(4-((R)-3-methoxypyrrolidin-1-yl)phenyl)-4-oxo-1,4-dihydropyridine-3-carboxylic acid] | 1.5E+09 copies/mL and 3.2E+09 copies/mL | 2.7E+08 U/mL and 4.1E+08 U/mL | 2,930 IU/mL and 2,629 IU/mL | 1.0E+09 copies/mL and 1.4E+09 copies/mL | 8.8E+07 U/mL and 1.4E+08 U/mL | 638 IU/mL and 564 IU/mL | 6.9E+08 copies/mL and 4.7E+08 copies/mL | 7.5E+07 U/mL and 7.3E+07 U/mL | 450 IU/mL and 429 IU/mL | 8.4E+08 copies/mL and 6.4E+08 copies/mL | 476 IU/mL and 407 IU/mL | 9.6E+08 copies/mL and 1.3E+09 copies/mL | 7.8E+07 U/mL and 9.8E+07 U/mL | 522 IU/mL and 477 IU/mL | 7.74 | 7.66
